Patent US20240300913A1, “FLAVONE DERIVATIVE AND USE THEREOF FOR IMPROVING PULMONARY FIBROSIS” (A-CHEMBIO CO., LTD, priority 2023, published 2024)

System: HULEC-5a cells
Experiment: Effect of bleomycin treatment on Hulec-5a cells (western blot of protein levels)
Assay type: cell-based, human
Details: Hulec-5a cells treated with bleomycin, FIG. 14
Method: 1.2×10^6 Hulec-5a cells, derived from pulmonary vessels, were suspended in a medium, dispensed into a 100-mm plate, and incubated for 24 hours. After 24 hours, each plate was treated with BLM alone or in combination with novel flavone derivative I at varying concentrations or a predetermined concentration. After a predetermined period of incubation, the cells were lysed with RIPA lysis buffer ([50 mM Tris]-Cl (pH, 7.4), 1% NP-40, 150 mM NaCl, 1 mM EDTA, and 1 mM phenylmethylsulfonyl fluoride (PMSF)) containing MG-132 (10 μM). Next, only the supernatant was collected by centrifugation (at 14,000 rpm for 10 minutes) at 4° C., and the proteins were separated by SDS-polyacrylamide gel electrophoresis (SDS-PAGE). The separated proteins were transferred to a polyvinylidene difluoride membrane (PVDF membrane), reacted in 5% nonfat dry milk for 3 hours, and then reacted with primary antibodies at 4° C. for 12 hours. After 12 hours, the proteins further reacted with secondary antibodies corresponding to the respective primary antibodies. Then, the protein band was examined, according to the manufacturer's protocol, using an ECL kit.

## COc1ccc(-c2c(-c3ccc(O)c(O)c3)oc3cc(OC)c(OC)cc3c2=O)cc1 [novel flavone derivative I, 2-(3,4-dihydroxyphenyl)-6,7-dimethoxy-3-(4-methoxyphenyl)-4H-chromen-4-one]
  levels of pulmonary fibrosis-related factors (fibronectin, α-SMA, HIF-1α, NOX2, and NOX4): decreased
